Measurements published in patent publication US20240041877A1, “DOSAGE REGIME AND METHOD FOR TREATING PULMONARY ARTERIAL HYPERTENSION” (Altavant Sciences GmbH, priority 2019, published 2024).

Experiment: Study KAR5585-101 Part 1 (SAD): plasma pharmacokinetics after a single oral dose of KAR5585, fasting and fed (incl. dose proportionality and food effect)
Settings: for half-life / AUC(0-t) / AUC / AUC(0-inf) / concentration at 12 h / Cmax / Tmax: human, po; for AUC: AUC0-tau; for AUC(0-inf): AUC0-∞; for Tmax: Median
[1] = 100 mg to 700 mg dose (7-fold increase in dose), fasting
[2] = 400 mg KAR5585, Cohort 3B (test) vs 3A (reference)
[3] = 400 mg KAR5585 single dose, Cohorts 3B vs 3A
[4] = 700 mg to 2000 mg (2.86-fold increase in dose), fasting
[5] = 100 to 2000 mg KAR5585 single oral dose, fasting, plasma analyte = label
[6] = KAR5417 after 100 mg KAR5585 single oral, fasted, Cohort 1, Geo. Mean
[7] = KAR5417 after 100 mg KAR5585 single oral, fasted, Cohort 1, Mean
[8] = KAR5417 after 200 mg KAR5585 single oral, fasted, Cohort 2, Geo. Mean
[9] = KAR5417 after 200 mg KAR5585 single oral, fasted, Cohort 2, Mean
[10] = KAR5417 after 400 mg KAR5585 single oral, fasted, Cohort 3A, Geo. Mean
[11] = KAR5417 after 400 mg KAR5585 single oral, fasted, Cohort 3A, Mean
[12] = KAR5417 after 400 mg KAR5585 single oral, fed, Cohort 3B, Geo. Mean
[13] = KAR5417 after 400 mg KAR5585 single oral, fed, Cohort 3B, Mean
[14] = KAR5417 after 700 mg KAR5585 single oral, fasted, Cohort 4, Geo. Mean
[15] = KAR5417 after 700 mg KAR5585 single oral, fasted, Cohort 4, Mean
[16] = KAR5417 after 1200 mg KAR5585 single oral, fasted, Cohort 5, Geo. Mean
[17] = KAR5417 after 1200 mg KAR5585 single oral, fasted, Cohort 5, Mean
[18] = KAR5417 after 2000 mg KAR5585 single oral, fasted, Cohort 6, Geo. Mean
[19] = KAR5417 after 2000 mg KAR5585 single oral, fasted, Cohort 6, Mean
[20] = plasma, 100 mg, KAR5417 after 100 mg KAR5585 single oral, fasted, Cohort 1, Geo. Mean
[21] = plasma, 100 mg, KAR5417 after 100 mg KAR5585 single oral, fasted, Cohort 1, Mean
[22] = plasma, 200 mg, KAR5417 after 200 mg KAR5585 single oral, fasted, Cohort 2, Geo. Mean
[23] = plasma, 200 mg, KAR5417 after 200 mg KAR5585 single oral, fasted, Cohort 2, Mean

Method: Food effect was to be evaluated in Part 1, Period 2. Part 2 was permitted to begin before Part 1 was completed and, in each part, the data from each dose Cohort were to be reviewed for safety before the next dose Cohort was enrolled.
Part 1 had 6 Cohorts of 12 subjects each (for a total of 72 subjects) and Part 2 had 4 Cohorts of 12 subjects each (for a total of 48 subjects). In Part 1, the 12 subjects in Cohort 3 (400 mg)were studied twice, once under fasting conditions (Period 1) and once under fed conditions (Period 2) for food-effect assessment.
Pharmacokinetic data were to be summarized descriptively.

## Nc1nc(O[C@H](c2ccc(Cl)cc2-c2ccccc2)C(F)(F)F)cc(N2CCC3(CC2)CN[C@H](C(=O)O)C3)n1 [KAR5417, (S)-8-(2-amino-6-((R)-1-(5-chloro-[1,1T-biphenyl]-2-yl)-2,2,2-trifluoroeth-oxy)pyrimidin-4-yl)-2,8-diazaspiro[4.5]decane-3-carboxylic acid]
[1]
  fold increase in mean AUC0-24: 6.3 fold
  fold increase in mean AUC0-inf: 6.8 fold
  fold increase in mean Cmax: 7.27 fold
[2]
  AUC0-inf, Geometric LS Mean Ratio (fed/fasting): 2.02
  AUC0-tau, Geometric LS Mean Ratio (fed/fasting): 2.04
400 mg KAR5585 single dose
  exposure as assessed by AUC0-tau and AUC0-inf, fed relative to fasting: approximately 2 fold
[3]
  fold increase in Cmax, fed vs fasting: 1.8 fold
  fold increase in mean AUC0-inf, fed vs fasting: 1.8 fold
  peak mean concentration under fed relative to fasting conditions, % higher: approximately 177%
[4]
  fold increase in AUC0-24: 1.7 fold
  fold increase in AUC0-inf: 1.81 fold
  fold increase in Cmax: 1.38 fold
[5]
  Dose proportionality power model, AUC0-12: Intercept estimate: 14.5
  Dose proportionality power model, AUC0-inf: Intercept estimate: 12.3
  Dose proportionality power model, AUC0-tau: Intercept estimate: 6.54
  Dose proportionality power model, Cmax: Intercept estimate: 1.95
[6]
  AUC0-24/D: 8.16 (hr*ng/mL)/mg
  Cmax/D: 0.931 (ng/ml)/mg
[7]
  AUC0-24/D: 8.47 (hr*ng/mL)/mg
  Cmax/D: 1.07 (ng/ml)/mg
  t1/2: 4.67 h
[8]
  AUC0-24/D: 4.70 (hr*ng/mL)/mg
  Cmax/D: 0.658 (ng/ml)/mg
[9]
  AUC0-24/D: 5.81 (hr*ng/mL)/mg
  Cmax/D: 0.801 (ng/ml)/mg
[10]
  AUC0-24/D: 7.43 (hr*ng/mL)/mg
  Cmax/D: 1.11 (ng/ml)/mg
[11]
  AUC0-24/D: 8.12 (hr*ng/mL)/mg
  Cmax/D: 1.21 (ng/ml)/mg
[12]
  AUC0-24/D: 13.4 (hr*ng/mL)/mg
  Cmax/D: 2.08 (ng/ml)/mg
[13]
  AUC0-24/D: 13.6 (hr*ng/mL)/mg
  Cmax/D: 2.15 (ng/ml)/mg
[14]
  AUC0-24/D: 5.31 (hr*ng/mL)/mg
  Cmax/D: 0.777 (ng/ml)/mg
[15]
  AUC0-24/D: 7.58 (hr*ng/mL)/mg
  Cmax/D: 1.11 (ng/ml)/mg
[16]
  AUC0-24/D: 4.84 (hr*ng/mL)/mg
  Cmax/D: 0.636 (ng/ml)/mg
[17]
  AUC0-24/D: 5.66 (hr*ng/mL)/mg
  Cmax/D: 0.747 (ng/ml)/mg
[18]
  AUC0-24/D: 4.26 (hr*ng/mL)/mg
  Cmax/D: 0.515 (ng/ml)/mg
[19]
  AUC0-24/D: 4.54 (hr*ng/mL)/mg
  Cmax/D: 0.542 (ng/ml)/mg
In vivo, 700 mg
  half-life: 12.1 h
plasma, 100 mg, AUC0-12, KAR5417 after 100 mg KAR5585 single oral, fasted, Cohort 1, Geo. Mean
  AUC(0-t): 686 ng·h/mL
plasma, 100 mg, AUC0-12, KAR5417 after 100 mg KAR5585 single oral, fasted, Cohort 1, Mean
  AUC(0-t): 704 ng·h/mL
plasma, 100 mg, AUC0-24, KAR5417 after 100 mg KAR5585 single oral, fasted, Cohort 1, Geo. Mean
  AUC(0-t): 816 ng·h/mL
plasma, 100 mg, AUC0-24, KAR5417 after 100 mg KAR5585 single oral, fasted, Cohort 1, Mean
  AUC(0-t): 847 ng·h/mL
[20]
  AUC: 605 ng·h/mL
  AUC(0-inf): 847 ng·h/mL
  Cmax: 93.1 ng/mL
[21]
  AUC: 718 ng·h/mL
  AUC(0-inf): 886 ng·h/mL
  Cmax: 107 ng/mL
plasma, 100 mg, C12, KAR5417 after 100 mg KAR5585 single oral, fasted, Cohort 1, Geo. Mean
  concentration at 12 h: 22.5 ng/mL
plasma, 100 mg, C12, KAR5417 after 100 mg KAR5585 single oral, fasted, Cohort 1, Mean
  concentration at 12 h: 23.8 ng/mL
plasma, 100 mg, Plasma AUC0-96, KAR5417 in plasma, 100 mg KAR5585 single oral dose, mean
  AUC(0-t): 889 ng·h/mL
plasma, 100 mg, t1/2, KAR5417 after 100 mg KAR5585 single oral, fasted, Cohort 1, Geo. Mean
  half-life: 4.51 h
plasma, 100 mg, t1/2, KAR5417 after 100 mg KAR5585 single oral, fasted, Cohort 1, Mean
  half-life: 4.7 h
plasma, 100 mg, KAR5417 after 100 mg KAR5585 single oral, fasted, Cohort 1
  Tmax: 4 h
plasma, 200 mg, AUC0-12, KAR5417 after 200 mg KAR5585 single oral, fasted, Cohort 2, Geo. Mean
  AUC(0-t): 771 ng·h/mL
plasma, 200 mg, AUC0-12, KAR5417 after 200 mg KAR5585 single oral, fasted, Cohort 2, Mean
  AUC(0-t): 947 ng·h/mL
plasma, 200 mg, AUC0-24, KAR5417 after 200 mg KAR5585 single oral, fasted, Cohort 2, Geo. Mean
  AUC(0-t): 940 ng·h/mL
plasma, 200 mg, AUC0-24, KAR5417 after 200 mg KAR5585 single oral, fasted, Cohort 2, Mean
  AUC(0-t): 1160 ng·h/mL
[22]
  AUC: 866 ng·h/mL
  AUC(0-inf): 988 ng·h/mL
  Cmax: 132 ng/mL
[23]
  AUC: 1120 ng·h/mL
  AUC(0-inf): 1230 ng·h/mL
  Cmax: 160 ng/mL
plasma, 200 mg, C12, KAR5417 after 200 mg KAR5585 single oral, fasted, Cohort 2, Geo. Mean
  concentration at 12 h: 27.3 ng/mL
plasma, 200 mg, C12, KAR5417 after 200 mg KAR5585 single oral, fasted, Cohort 2, Mean
  concentration at 12 h: 32.9 ng/mL
plasma, 200 mg, Plasma AUC0-96, KAR5417 in plasma, 200 mg KAR5585 single oral dose, mean
  AUC(0-t): 1240 ng·h/mL
plasma, 200 mg, t1/2, KAR5417 after 200 mg KAR5585 single oral, fasted, Cohort 2, Geo. Mean
  half-life: 5.29 h
plasma, 200 mg, t1/2, KAR5417 after 200 mg KAR5585 single oral, fasted, Cohort 2, Mean
  half-life: 5.4 h
plasma, 200 mg, KAR5417 after 200 mg KAR5585 single oral, fasted, Cohort 2
  Tmax: 3 h
plasma, 400 mg, AUC0-12, KAR5417 after 400 mg KAR5585 single oral, fasted, Cohort 3A, Geo. Mean
  AUC(0-t): 2460 ng·h/mL
plasma, 400 mg, AUC0-12, KAR5417 after 400 mg KAR5585 single oral, fasted, Cohort 3A, Mean
  AUC(0-t): 2690 ng·h/mL
plasma, 400 mg, AUC0-12, KAR5417 after 400 mg KAR5585 single oral, fed, Cohort 3B, Geo. Mean
  AUC(0-t): 4170 ng·h/mL
plasma, 400 mg, AUC0-12, KAR5417 after 400 mg KAR5585 single oral, fed, Cohort 3B, Mean
  AUC(0-t): 4240 ng·h/mL
plasma, 400 mg, AUC0-24, KAR5417 after 400 mg KAR5585 single oral, fasted, Cohort 3A, Geo. Mean
  AUC(0-t): 2970 ng·h/mL
plasma, 400 mg, AUC0-24, KAR5417 after 400 mg KAR5585 single oral, fasted, Cohort 3A, Mean
  AUC(0-t): 3250 ng·h/mL
plasma, 400 mg, AUC0-24, KAR5417 after 400 mg KAR5585 single oral, fed, Cohort 3B, Geo. Mean
  AUC(0-t): 5370 ng·h/mL
plasma, 400 mg, AUC0-24, KAR5417 after 400 mg KAR5585 single oral, fed, Cohort 3B, Mean
  AUC(0-t): 5430 ng·h/mL
